Results on 27 compounds are retold here after US20070049593A1 (priority 2004, published 2007).

The structures appear in SMILES notation. Where a name gives a salt, the structure may show the parent alone.

In general, IC50 refers to the concentration at which inhibition is half-maximal. A low value points to higher potency.

The target in this test is T1, HCV polymerase (Hepatitis C virus genotype 1b, UniProt P26663).
T1 construct: a region encoding NS5B (J Virol 1991 March, 65(3), 1105-13, 544 amino acids after deletion of 47 amino acids on the C-terminal); 6xHis (C); made in house; host or cells: Escherichia coli
T1 sequence (P26663 2420-2963): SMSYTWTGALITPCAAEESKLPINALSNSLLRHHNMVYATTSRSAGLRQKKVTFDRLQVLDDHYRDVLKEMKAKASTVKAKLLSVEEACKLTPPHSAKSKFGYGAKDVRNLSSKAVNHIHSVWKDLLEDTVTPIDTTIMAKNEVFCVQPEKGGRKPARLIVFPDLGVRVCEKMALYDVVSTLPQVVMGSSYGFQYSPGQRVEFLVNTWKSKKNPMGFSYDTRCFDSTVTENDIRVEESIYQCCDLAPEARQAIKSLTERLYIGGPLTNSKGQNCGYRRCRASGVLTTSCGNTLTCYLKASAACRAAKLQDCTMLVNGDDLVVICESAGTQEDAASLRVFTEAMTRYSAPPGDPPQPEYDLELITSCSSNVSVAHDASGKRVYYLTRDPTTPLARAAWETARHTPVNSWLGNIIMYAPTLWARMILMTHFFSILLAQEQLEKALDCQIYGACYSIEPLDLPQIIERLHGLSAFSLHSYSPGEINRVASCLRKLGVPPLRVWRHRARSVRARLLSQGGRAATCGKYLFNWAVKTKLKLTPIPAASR
The test can be described thus: biochemical. Also on record: species or system HCV BK strain. The essentials: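 His-tagged NS5B (BK strain, 47-aa C-terminal deletion, E. coli-expressed) at 0.5 μg/ml copied 5 μg/ml run-off RNA bearing the HCV 3′ UTR with 2 μM UTP plus [3H]UTP, 50 μM ATP/GTP, in pH 7.5 Tris with 5 mM MgCl2, 25 °C, 90 min. TCA-precipitated RNA was counted and IC50 calculated.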
The compound `CCCN(CCN1CCCCC1)c1cccc2c1OCCn1c-2c(C2CCCCC2)c2ccc(C(N)=O)cc21` [Example 2-300, 12-cyclohexyl-4-{N-[2-(piperidin-1-yl)ethyl]-N-propylamino}-6,7-dihydro-5-oxa-7a-azadibenzo[a,e]azulene-9-carboxamide] yielded an IC50 of under 0.1 µM. The compound `CCN1CCN(C(=O)CN(CC)c2cccc3c2OCCn2c-3c(C3CCCCC3)c3ccc(C(=O)O)cc32)CC1` [Example 2-301, 12-cyclohexyl-4-{N-ethyl-N-[2-(4-ethylpiperazin-1-yl)-2-oxoethyl]amino}-6,7-dihydro-5-oxa-7a-azadibenzo[a,e]azulene-9-carboxylic acid dihydrochloride] yielded an IC50 of under 0.1 µM. For `O=C(O)c1ccc2c(C3CCCCC3)c3n(c2c1)CCOc1c(-c2cccc(CO)c2)cccc1-3` [Example 2-302, 12-cyclohexyl-4-(3-hydroxymethylphenyl)-6,7-dihydro-5-oxa-7a-azadibenzo[a,e]azulene-9-carboxylic acid] the value was under 0.1 µM; for `CC(=O)N1CCN(C(=O)C(C)(C)NC(=O)c2ccc3c(C4CCCCC4)c4n(c3c2)CCOc2ccccc2-4)CC1` [Example 2-303, N-[2-(4-acetylpiperazin-1-yl)-1,1-dimethyl-2-oxoethyl]-12-cyclohexyl-6,7-dihydro-5-oxa-7a-azadibenzo[a,e]azulene-9-carboxamide], under 0.1 µM; for `CC(C)(NC(=O)c1ccc2c(C3CCCCC3)c3n(c2c1)CCOc1ccccc1-3)C(=O)N1CCN(CCO)CC1` [Example 2-304, N-{2-[4-(2-hydroxyethyl)piperazin-1-yl]-1,1-dimethyl-2-oxoethyl}-12-cyclohexyl-6,7-dihydro-5-oxa-7a-azadibenzo[a,e]azulene-9-carboxamide], under 0.1 µM.

For the compound `COCCN1CCN(C(=O)C(C)(C)NC(=O)c2ccc3c(C4CCCCC4)c4n(c3c2)CCOc2ccccc2-4)CC1` [Example 2-305, N-{2-[4-(2-methoxyethyl)piperazin-1-yl]-1,1-dimethyl-2-oxoethyl}-12-cyclohexyl-6,7-dihydro-5-oxa-7a-azadibenzo[a,e]azulene-9-carboxamide], the IC50 is under 0.1 µM. In turn, `COc1cccc2c1OCCn1c-2c(C2CCCCC2)c2ccc(C(=O)NC(C)(C)C(=O)Nc3ccc(C(=O)O)cc3)cc21` [Example 2-306, 4-{2-[(12-cyclohexyl-4-methoxy-6,7-dihydro-5-oxa-7a-azadibenzo[a,e]azulene-9-carbonyl)amino]-2-methylpropionylamino}benzoic acid] had an IC50 of under 0.1 µM. Consider `COc1ccc(-c2cnc(C(C)(C)NC(=O)c3ccc4c(C5CCCCC5)c5n(c4c3)CCOc3ccccc3-5)[nH]2)cc1` [Example 2-307, N-{1-[5-(4-methoxyphenyl)-1H-imidazol-2-yl]-1-methylethyl}-12-cyclohexyl-6,7-dihydro-5-oxa-7a-azadibenzo[a,e]azulene-9-carboxamide], for which the IC50 was under 0.1 µM. For `COc1ccc2c(c1)OCCn1c-2c(C2CCCCC2)c2ccc(C(=O)N[C@@H](Cc3ccc(O)cc3)CN(C)C)cc21` [Example 2-308, N—[(S)-2-dimethylamino-1-(4-hydroxybenzyl)ethyl]-12-cyclohexyl-3-methoxy-6,7-dihydro-5-oxa-7a-azadibenzo[a,e]azulene-9-carboxamide] the value was under 0.1 µM. `COC(=O)[C@H](CCCCNC(=O)OC(C)(C)C)NC(=O)c1ccc2c(C3CCCCC3)c3n(c2c1)CCOc1cc(OC)ccc1-3` [Example 2-309, methyl (S)-6-tert-butoxycarbonylamino-2-[(12-cyclohexyl-3-methoxy-6,7-dihydro-5-oxa-7a-azadibenzo[a,e]azulene-9-carbonyl)amino]hexanoate] gave a half-maximal inhibitory concentration (IC50) of 0.1 to 1 µM. Regarding `COc1ccc2c(c1)OCCn1c-2c(C2CCCCC2)c2ccc(C(=O)N[C@@H](Cc3c[nH]cn3)C(=O)O)cc21` [Example 2-310, (S)-2-[(12-cyclohexyl-3-methoxy-6,7-dihydro-5-oxa-7a-azadibenzo[a,e]azulene-9-carbonyl)amino]-3-(1H-imidazol-4-yl)propionic acid], the IC50 was under 0.1 µM.

For `CC(C)(NC(=O)c1ccc2c(C3CCCCC3)c3n(c2c1)CCOc1ccccc1-3)c1nc2cc(-c3nnn[nH]3)ccc2[nH]1` [Example 2-311, N-{1-methyl-1-[5-(1H-tetrazol-5-yl)-1H-benzimidazol-2-yl]ethyl}-12-cyclohexyl-6,7-dihydro-5-oxa-7a-azadibenzo[a,e]azulene-9-carboxamide], the IC50 was under 0.1 µM.

Compound `CC(C)(NC(=O)c1ccc2c(C3CCCCC3)c3n(c2c1)CCOc1ccccc1-3)c1nc2ccccc2n1CC(=O)O` [Example 2-312, (2-{1-[(12-cyclohexyl-6,7-dihydro-5-oxa-7a-azadibenzo[a,e]azulene-9-carbonyl)amino]-1-methylethyl}benzimidazol-1-yl)acetic acid] came in with an IC50 of under 0.1 µM.

Take `COC(=O)c1ccc2nc(C3(NC(=O)c4ccc5c(C6CCCCC6)c6n(c5c4)CCOc4ccccc4-6)CCN(C)CC3)[nH]c2c1` [Example 2-313, methyl 2-{4-[(12-cyclohexyl-6,7-dihydro-5-oxa-7a-azadibenzo[a,e]azulene-9-carbonyl)amino]-1-methylpiperidin-4-yl]-3H-benzimidazole-5-carboxylate]: the IC50 was under 0.1 µM. `COC[C@H](Cc1ccc(O)cc1)NC(=O)c1ccc2c(C3CCCCC3)c3n(c2c1)CCOc1cc(OC)ccc1-3` [Example 2-314, N—[(S)-1-(4-hydroxybenzyl)-2-methoxyethyl]-12-cyclohexyl-3-methoxy-6,7-dihydro-5-oxa-7a-azadibenzo[a,e]azulene-9-carboxamide] returned an IC50 of under 0.1 µM. For `COC(=O)C(Cc1ccc(O)c(F)c1)NC(=O)c1ccc2c(C3CCCCC3)c3n(c2c1)CCOc1cc(OC)ccc1-3` (stereo not drawn) [Example 2-315, methyl 2-[(12-cyclohexyl-3-methoxy-6,7-dihydro-5-oxa-7a-azadibenzo[a,e]azulene-9-carbonyl)amino]-3-(3-fluoro-4-hydroxyphenyl)propionate] the value was under 0.1 µM.

The compound `COC(=O)[C@H](Cc1c[nH]c2ccc(O)cc12)NC(=O)c1ccc2c(C3CCCCC3)c3n(c2c1)CCOc1cc(OC)ccc1-3` [Example 2-316, methyl (S)-2-[(12-cyclohexyl-3-methoxy-6,7-dihydro-5-oxa-7a-azadibenzo[a,e]azulene-9-carbonyl)amino]-3-(5-hydroxy-1H-indol-3-yl)propionate] gave a half-inhibitory concentration (IC50) of under 0.1 µM. Regarding `COC(=O)[C@H](Cc1ccc(NC(=O)OCc2ccccc2)cc1)NC(=O)c1ccc2c(C3CCCCC3)c3n(c2c1)CCOc1cc(OC)ccc1-3` [Example 2-317, methyl (S)-3-(4-benzyloxycarbonylaminophenyl)-2-[(12-cyclohexyl-3-methoxy-6,7-dihydro-5-oxa-7a-azadibenzo[a,e]azulene-9-carbonyl)amino]propionate], the IC50 is under 0.1 µM. To `COc1ccc2c(c1)OCCn1c-2c(C2CCCCC2)c2ccc(C(=O)N[C@@H](Cc3ccc(NC(=O)OCc4ccccc4)cc3)C(=O)O)cc21` [Example 2-318, (S)-3-(4-benzyloxycarbonylaminophenyl)-2-[(12-cyclohexyl-3-methoxy-6,7-dihydro-5-oxa-7a-azadibenzo[a,e]azulene-9-carbonyl)amino]propionic acid] belongs under 0.1 µM; to `COC(=O)[C@H](Cc1ccc(N)cc1)NC(=O)c1ccc2c(C3CCCCC3)c3n(c2c1)CCOc1cc(OC)ccc1-3` [Example 2-319, methyl (S)-3-(4-aminophenyl)-2-[(12-cyclohexyl-3-methoxy-6,7-dihydro-5-oxa-7a-azadibenzo[a,e]azulene-9-carbonyl)amino]propionate], under 0.1 µM; to `COc1ccc2c(c1)OCCn1c-2c(C2CCCCC2)c2ccc(C(=O)N[C@@H](Cc3ccc(N)cc3)C(=O)O)cc21` [Example 2-320, (S)-3-(4-aminophenyl)-2-[(12-cyclohexyl-3-methoxy-6,7-dihydro-5-oxa-7a-azadibenzo[a,e]azulene-9-carbonyl)amino]propionic acid], under 0.1 µM.

On to `CC(C)(C)OC(=O)NC1CCN(C(=O)C(C)(C)NC(=O)c2ccc3c(C4CCCCC4)c4n(c3c2)CCOc2ccccc2-4)CC1` [Example 2-321, tert-butyl (1-{2-[(12-cyclohexyl-6,7-dihydro-5-oxa-7a-azadibenzo[a,e]azulene-9-carbonyl)amino]-2-methylpropionyl)piperidin-4-yl)carbamate], for which the IC50 is under 0.1 µM. To `CC(C)(NC(=O)c1ccc2c(C3CCCCC3)c3n(c2c1)CCOc1ccccc1-3)C(=O)N1CCC(O)C1` (stereo not drawn) [Example 2-322, N-[2-(3-hydroxypyrrolidin-1-yl)-1,1-dimethyl-2-oxoethyl]-12-cyclohexyl-6,7-dihydro-5-oxa-7a-azadibenzo[a,e]azulene-9-carboxamide] belongs under 0.1 µM; to `COCc1cccc(-c2cccc3c2OCCn2c-3c(C3CCCCC3)c3ccc(C(=O)O)cc32)c1` [Example 2-323, 12-cyclohexyl-4-(3-methoxymethylphenyl)-6,7-dihydro-5-oxa-7a-azadibenzo[a,e]azulene-9-carboxylic acid], under 0.1 µM; to `O=C(O)c1ccc2c(C3CCCCC3)c3n(c2c1)CCOc1c(Nc2ccccc2)cccc1-3` [Example 2-324, 12-cyclohexyl-4-phenylamino-6,7-dihydro-5-oxa-7a-azadibenzo[a,e]azulene-9-carboxylic acid], under 0.1 µM. To `O=C(O)c1ccc2c(C3CCCCC3)c3n(c2c1)CCOc1c(-c2ccccc2CO)cccc1-3` [Example 2-325, 12-cyclohexyl-4-(2-hydroxymethylphenyl)-6,7-dihydro-5-oxa-7a-azadibenzo[a,e]azulene-9-carboxylic acid] belongs under 0.1 µM. To `COCc1ccccc1-c1cccc2c1OCCn1c-2c(C2CCCCC2)c2ccc(C(=O)O)cc21` [Example 2-327, 12-cyclohexyl-4-(2-methoxymethylphenyl)-6,7-dihydro-5-oxa-7a-azadibenzo[a,e]azulene-9-carboxylic acid] belongs under 0.1 µM.
